# According to patent publication US20150118231A1, “APOE4 ANTIBODIES FOR TREATMENT OF NEURODEGENERATIVE CONDITIONS” (RAMOT AT TEL-AVIV UNIVERSITY LTD., priority 2012, published 2015):
# Legend:
# [1] = test system: apoE3 and apoE4 mice; test: Bexarotene by gavage: fear conditioning test; type: in vivo; details: 100 mg per kg per day by gavage; mild electric shock
# [2] = test system: apoE3 and apoE4 mice; test: Bexarotene by gavage: Morris swim test; type: in vivo; details: 100 mg per kg per day by gavage
# Excerpt: Next, the mice were further investigated following removal of the platform from the water arena.
# [3] = test system: mouse model of AD; details: oral administration; cited from earlier work
# [4] = test system: apoE3 and apoE4 mice; test: Bexarotene by gavage: object recognition test; details: 100 mg per kg per day by gavage; apoE4 mice prefer the novel object, similarly to apoE3 mice
compound,measurement,setting,value
C=C(c1ccc(C(=O)O)cc1)c1cc2c(cc1C)C(C)(C)CCC2(C)C [Bexarotene],"fear conditioning, freezing time: difference between apoE3 and apoE4 mice",[1],abolished
same,"Morris swim test, time to reach the platform, apoE4 mice","[2]; days 1-4, rendered similar to apoE3 mice",improves
same,"Morris swim test, time searching for the missing platform: difference between apoE3 and apoE4 mice",[2]; platform removed,abolished
same,apoE synthesis,[3],enhanced
same,clearance of soluble Aβ,[3],within hours
same,cognitive deficits,[3],rapid reversal
same,neural circuit function,[3],improved
same,time to reduced Aβ plaque area,[3],≤ 72 h
same,object recognition impairment in apoE4 mice (time spent near the novel object),[4],reversed
